Consider eleven molecules from patent US8658604B2, “Template-fixed beta-hairpin peptidomimetics with protease inhibitory activity” (Polyphor Ltd, priority 2005, dated 2014).

Each structure is given as a SMILES string. Where a SMILES comes first, the peptide text is derived from it. Some results are limits rather than exact numbers.

Assay [1] deals with Trypsin, from human pancreas (Homo sapiens, UniProt P07477). The assay is described as follows: Enzymatic assay, trypsin.
Assay [2] deals with T1, CathepsinG, from human neutrophils (Homo sapiens, UniProt P08311).
T1 sequence (P08311 21-244): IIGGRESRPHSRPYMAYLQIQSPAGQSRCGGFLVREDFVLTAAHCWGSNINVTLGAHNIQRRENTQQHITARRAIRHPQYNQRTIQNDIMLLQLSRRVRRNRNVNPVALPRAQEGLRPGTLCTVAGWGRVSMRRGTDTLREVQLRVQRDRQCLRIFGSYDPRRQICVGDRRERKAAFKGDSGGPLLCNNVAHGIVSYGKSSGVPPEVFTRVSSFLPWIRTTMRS
Kind of assay: Enzymatic assay, cathepsin G. To be noted: Cathepsin G IC50.

Assay [3] concerns the target Tryptase, from human lung. The assay is described as follows: Enzymatic assay, tryptase. To be noted: for IC50: read-out: Tryptase IC50.
Assay [4] concerns the target T2, Elastase from human neutrophils (Homo sapiens, UniProt P08246).
T2 sequence (P08246 30-267): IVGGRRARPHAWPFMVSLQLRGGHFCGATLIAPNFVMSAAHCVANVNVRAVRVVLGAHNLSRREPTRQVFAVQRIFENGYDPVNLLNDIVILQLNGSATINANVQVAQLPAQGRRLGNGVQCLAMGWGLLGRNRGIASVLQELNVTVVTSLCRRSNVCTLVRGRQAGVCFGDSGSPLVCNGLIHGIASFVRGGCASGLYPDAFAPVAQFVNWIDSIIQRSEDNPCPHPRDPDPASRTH
The assay is described as follows: Enzymatic assay, elastase.

As usually defined, the IC50 is the midpoint of a concentration-inhibition curve. In the case of `CC(C)C[C@@H]1NC(=O)[C@@H]2CCCN2C(=O)[C@H]2CCCN2C(=O)[C@H](CCCNC(=N)N)NC(=O)[C@@H]2CSSC[C@H](NC1=O)C(=O)N[C@@H]([C@@H](C)O)C(=O)N[C@@H](CCCCN)C(=O)N[C@@H](CO)C(=O)N[C@@H](CC(C)C)C(=O)N1CCC[C@H]1C(=O)N1CCC[C@H]1C(=O)N[C@@H](CCCCN)C(=O)N2` [Ex. 191] (HELM PEPTIDE1{L.C.T.K.S.L.P.P.K.C.R.[dP].P}$PEPTIDE1,PEPTIDE1,2:R3-10:R3|PEPTIDE1,PEPTIDE1,1:R1-13:R2$$$V2.0), the IC50 in assay [1] was 66 nM; in assay [2] it was 400 nM; in assay [3], 21 nM.

In the case of `CC(C)C[C@@H]1NC(=O)[C@H](CO)NC(=O)[C@H](CCCCN)NC(=O)[C@H]([C@@H](C)O)NC(=O)[C@@H]2CSSC[C@H](NC(=O)[C@H](CCCCN)NC(=O)[C@@H]3CCCN3C(=O)[C@@H]3CCCN3C1=O)C(=O)N[C@@H](Cc1ccc(O)cc1)C(=O)N1CCC[C@@H]1C(=O)N1CCC[C@H]1C(=O)N[C@@H](CCCNC(=N)N)C(=O)N2` [Ex. 196] (HELM PEPTIDE1{R.C.T.K.S.L.P.P.K.C.Y.[dP].P}$PEPTIDE1,PEPTIDE1,2:R3-10:R3|PEPTIDE1,PEPTIDE1,1:R1-13:R2$$$V2.0), the IC50 in assay [1] was found to be 70 nM; in assay [2] it was 2170 nM; in assay [3] it was 52 nM.

`CC[C@H](C)[C@@H]1NC(=O)[C@@H]2CCCN2C(=O)[C@H]2CCCN2C(=O)[C@H](CCCNC(=N)N)NC(=O)[C@@H]2CSSC[C@H](NC1=O)C(=O)N[C@@H]([C@@H](C)O)C(=O)N[C@@H](CCCCN)C(=O)N[C@@H](CO)C(=O)N[C@@H](CC(C)C)C(=O)N1CCC[C@H]1C(=O)N1CCC[C@H]1C(=O)N[C@@H](Cc1c[nH]cn1)C(=O)N2` [Ex. 187] (HELM PEPTIDE1{I.C.T.K.S.L.P.P.H.C.R.[dP].P}$PEPTIDE1,PEPTIDE1,2:R3-10:R3|PEPTIDE1,PEPTIDE1,1:R1-13:R2$$$V2.0): the IC50 was 39 nM in assay [1], 158 nM in assay [2] and < 100 nM in assay [3].

For the molecule `CC(C)C[C@@H]1NC(=O)[C@H](CO)NC(=O)[C@H](CCCCN)NC(=O)[C@H]([C@@H](C)O)NC(=O)[C@@H]2CSSC[C@H](NC(=O)[C@H](CCCCN)NC(=O)[C@@H]3CCCN3C(=O)[C@@H]3CCCN3C1=O)C(=O)N[C@@H](CCCNC(=N)N)C(=O)N1CCC[C@@H]1C(=O)N1CCC[C@H]1C(=O)N[C@@H](Cc1ccc(O)cc1)C(=O)N2` [Ex. 194] (HELM PEPTIDE1{Y.C.T.K.S.L.P.P.K.C.R.[dP].P}$PEPTIDE1,PEPTIDE1,2:R3-10:R3|PEPTIDE1,PEPTIDE1,1:R1-13:R2$$$V2.0), the IC50 in assay [1] is 431 nM; in assay [2], 1570 nM; in assay [3], 9 nM.

As for `CC[C@H](C)[C@@H]1NC(=O)[C@@H]2CCCN2C(=O)[C@H]2CCCN2C(=O)[C@H](CCCNC(=N)N)NC(=O)[C@@H]2CSSC[C@H](NC1=O)C(=O)N[C@@H]([C@@H](C)O)C(=O)N[C@@H](CCCCN)C(=O)N[C@@H](CO)C(=O)N[C@@H](Cc1ccc(O)cc1)C(=O)N1CCC[C@H]1C(=O)N1CCC[C@H]1C(=O)N[C@@H]([C@@H](C)CC)C(=O)N2` [Ex. 183] (HELM PEPTIDE1{I.C.T.K.S.Y.P.P.I.C.R.[dP].P}$PEPTIDE1,PEPTIDE1,2:R3-10:R3|PEPTIDE1,PEPTIDE1,1:R1-13:R2$$$V2.0), the IC50 in assay [1] was 146 nM; in assay [2] it was 243 nM; in assay [3], 25 nM.

`CC[C@H](C)[C@@H]1NC(=O)[C@@H]2CCCN2C(=O)[C@@H]2CCCN2C(=O)[C@H](CC(=O)O)NC(=O)[C@H](CO)NC(=O)[C@H](CCCCN)NC(=O)[C@H]([C@@H](C)O)NC(=O)[C@@H]2CSSC[C@H](NC1=O)C(=O)N[C@@H](CO)C(=O)N[C@H](CC(=O)O)C(=O)N1CCC[C@H]1C(=O)N[C@@H](Cc1ccccc1)C(=O)N2` [Ex. 46] (HELM PEPTIDE1{F.C.T.K.S.D.P.P.I.C.S.[dD].P}$PEPTIDE1,PEPTIDE1,2:R3-10:R3|PEPTIDE1,PEPTIDE1,1:R1-13:R2$$$V2.0): the “Tryptase at 100 μM %” value in assay [3] (at 100 μM) is listed as 44.1%.

In assay [2], `C[C@@H](O)[C@@H]1NC(=O)[C@@H]2CSSC[C@H](NC(=O)[C@H](CC3CCCCC3)NC(=O)[C@@H]3CCCN3C(=O)[C@@H]3CCCN3C(=O)[C@H](CC(=O)O)NC(=O)[C@H](CO)NC(=O)[C@H](CCCCN)NC1=O)C(=O)N[C@@H](CC(N)=O)C(=O)N1CCC[C@@H]1C(=O)N1CCC[C@H]1C(=O)N[C@@H](Cc1ccc(N)cc1)C(=O)N2` [Ex. 70] (HELM PEPTIDE1{[Nc1ccc(C[C@H](N[*:1])C(=O)[*:2])cc1].C.T.K.S.D.P.P.[Cha].C.N.[dP].P}$PEPTIDE1,PEPTIDE1,2:R3-10:R3|PEPTIDE1,PEPTIDE1,1:R1-13:R2$$$V2.0) registered an IC50 of 69 nM.

For `CC[C@H](C)[C@@H]1NC(=O)[C@@H]2CCCN2C(=O)[C@@H]2CCCN2C(=O)[C@H](CC(=O)O)NC(=O)[C@H](CO)NC(=O)[C@H](CCCCN)NC(=O)[C@H]([C@@H](C)O)NC(=O)[C@@H]2CSSC[C@H](NC1=O)C(=O)N[C@@H](CO)C(=O)N1CCC[C@@H]1C(=O)N[C@@H](CC(C)C)C(=O)N[C@@H](Cc1ccccc1)C(=O)N2` [Ex. 74] (HELM PEPTIDE1{C.S.[dP].L.F.C.T.K.S.D.P.P.I}$PEPTIDE1,PEPTIDE1,1:R3-6:R3|PEPTIDE1,PEPTIDE1,1:R1-13:R2$$$V2.0), the “Trypsin at 100 μM %” value in assay [1] was 86%.

On to `CCCC[C@@H]1NC(=O)[C@@H]2CCCN2C(=O)[C@H]2CCCN2C(=O)[C@H](CC(N)=O)NC(=O)[C@@H]2CSSC[C@H](NC1=O)C(=O)N[C@@H]([C@@H](C)O)C(=O)N[C@@H](CCCCN)C(=O)N[C@@H](CO)C(=O)N[C@@H](CC(=O)O)C(=O)N1CCC[C@H]1C(=O)N1CCC[C@H]1C(=O)N[C@@H]([C@@H](C)CC)C(=O)N2` [Ex. 41] (HELM PEPTIDE1{[Nle].C.T.K.S.D.P.P.I.C.N.[dP].P}$PEPTIDE1,PEPTIDE1,2:R3-10:R3|PEPTIDE1,PEPTIDE1,1:R1-13:R2$$$V2.0), for which the IC50 in assay [2] is 49 nM.

For `CC[C@H](C)[C@@H]1NC(=O)[C@@H]2CCCN2C(=O)[C@@H]2CCCN2C(=O)[C@H](CC(=O)O)NC(=O)[C@H](CO)NC(=O)[C@H](CCCCN)NC(=O)[C@H]([C@@H](C)O)NC(=O)[C@@H]2CSSC[C@H](NC1=O)C(=O)N[C@@H](CO)C(=O)N1CCC[C@@H]1C(=O)N1CCC[C@H]1C(=O)N[C@@H](Cc1ccc(N)cc1)C(=O)N2` [Ex. 9] (HELM PEPTIDE1{[Nc1ccc(C[C@H](N[*:1])C(=O)[*:2])cc1].C.T.K.S.D.P.P.I.C.S.[dP].P}$PEPTIDE1,PEPTIDE1,2:R3-10:R3|PEPTIDE1,PEPTIDE1,1:R1-13:R2$$$V2.0), the “Trypsin at 100 μM %” value in assay [1] is given as 88.1%. For the same molecule, the “Elastase at 100 μM %” value in assay [4] (at 100 μM (stated in cell instead of IC50)) is reported as 4.1 at %. Also, the IC50 in assay [2] was determined as 105 nM.

In the case of `CC[C@H](C)[C@@H]1NC(=O)[C@@H]2CCCN2C(=O)[C@@H]2CCCN2C(=O)[C@H](CC(=O)O)NC(=O)[C@H](CO)NC(=O)[C@H](CCCCN)NC(=O)[C@H]([C@@H](C)O)NC(=O)[C@@H]2CSSC[C@H](NC1=O)C(=O)N[C@@H](CO)C(=O)N1CCC[C@@H]1C(=O)N[C@@H](CC(C)C)C(=O)N[C@@H](Cc1ccccc1)C(=O)N2` [Ex. 51] (HELM PEPTIDE1{C.S.[dP].L.F.C.T.K.S.D.P.P.I}$PEPTIDE1,PEPTIDE1,1:R3-6:R3|PEPTIDE1,PEPTIDE1,1:R1-13:R2$$$V2.0), the IC50 is > 100000 nM in assay [4] (Elastase IC50) and 91 nM in assay [2].
